Measurements: ChEMBL document CHEMBL5104093, “A comprehensive review on β-lapachone: Mechanisms, structural modifications, and therapeutic potentials” (Eur J Med Chem, 2021)
Values after ≈ are worked out from the molar mass of the structure shown.

Key:
Staphylococcus aureus [1] = assay: Antibacterial activity against Methicillin-resistant Staphylococcus aureus ATCC 33591 assessed as bacterial growth inhibition incubated for 24 hrs by Mueller-Hinton broth based assay; assay type: functional
[2] = tested on: Staphylococcus epidermidis; assay: Antibacterial activity against Methicillin-resistant Staphylococcus epidermidis clinical isolates assessed as bacterial growth inhibition incubated for 24 hrs by Mueller-Hinton broth based assay; assay type: functional
[3] = tested on: Staphylococcus haemolyticus; assay: Antibacterial activity against Methicillin-resistant Staphylococcus haemolyticus clinical isolates assessed as bacterial growth inhibition incubated for 24 hrs by Mueller-Hinton broth based assay; assay type: functional
Staphylococcus aureus [4] = assay: Antibacterial activity against Methicillin-resistant Staphylococcus aureus ATCC 29213 assessed as bacterial growth inhibition incubated for 24 hrs by Mueller-Hinton broth based assay; assay type: functional
[5] = Cytotoxicity against African green monkey BSC40 cells assessed as viable cells incubated for 24 hrs by Neutral red dye based spectrophotometer analysis; assay type: toxicity, cell-based; conditions: chlorocebus aethiops, bsc40, 24 h
SNB-19 = assay: Cytotoxicity against human SNB-19 cells assessed as reduction in cell viability incubated for 72 hrs by MTT assay; assay type: functional, cell-based; conditions: SNB-19, 72 h
B16-F10 = assay: Cytotoxicity against mouse B16-F10 cells assessed as reduction in cell viability incubated for 72 hrs by MTT assay; assay type: functional, cell-based; conditions: B16-F10, 72 h
HCT-116 [6] = assay: Cytotoxicity against human HCT-116 cells assessed as reduction in cell viability incubated for 72 hrs by MTT assay; assay type: functional, cell-based; conditions: HCT-116, 72 h
Trypanosoma cruzi [7] = assay: Antitrypanosomal activity against bloodstream form of Trypanosoma cruzi Y trypomastigotes infected in Swiss Webster mouse assessed as reduction in viable parasite in blood incubated for 24 hrs by Neubauer counting chamber based light microscopic analysis; assay type: functional, organism-based
PC-3 = assay: Cytotoxicity against human PC-3 cells assessed as reduction in cell viability incubated for 72 hrs by MTT assay; assay type: functional, cell-based; conditions: PC-3, 72 h
MCF7 = assay: Cytotoxicity against human MCF7 cells assessed as reduction in cell viability incubated for 72 hrs by MTT assay; assay type: functional, cell-based; conditions: MCF7, 72 h
HL-60 [8] = assay: Cytotoxicity against human HL-60 cells assessed as reduction in cell viability incubated for 72 hrs by MTT assay; assay type: functional, cell-based; conditions: HL-60, 72 h
NCI-H1975 = assay: Cytotoxicity against human NCI-H1975 cells assessed as reduction in cell viability incubated for 72 hrs by MTT assay; assay type: functional, cell-based; conditions: NCI-H1975, 72 h
SF-295 = assay: Cytotoxicity against human SF-295 cells assessed as reduction in cell viability incubated for 72 hrs by MTT assay; assay type: functional, cell-based; conditions: SF-295, 72 h
HepG2 [9] = assay: Cytotoxicity against human HepG2 cells assessed as reduction in cell viability incubated for 48 hrs by MTT assay; assay type: functional, cell-based; conditions: HepG2, 48 h
HCT-116 [10] = assay: Cytotoxicity against human HCT-116 cells assessed as reduction in cell viability incubated for 48 hrs by MTT assay; assay type: functional, cell-based; conditions: HCT-116, 48 h
[11] = Volume of distribution at steady state in human; assay type: ADME
[12] = Clearance in human; assay type: ADME
[13] = Selectivity index, ratio of IC50 for human PBMC cells to IC50 for human HL-60 cells; assay type: toxicity; conditions: PBMC cells versus HL-60 cells, read-out: Ratio IC50
Trypanosoma cruzi [14] = assay: Antitrypanosomal activity against bloodstream form of Trypanosoma cruzi Y trypomastigotes infected in albino mouse assessed as reduction in viable parasite in blood incubated for 24 hrs by Neubauer counting chamber method; assay type: functional, organism-based
[15] = Oral bioavailability in human at 40 mg/kg; assay type: ADME, organism-based; conditions: in vivo
[16] = Elimination half life in human at 1.5 mg/kg, iv; assay type: ADME, organism-based; conditions: in vivo, read-out: beta t1/2 (converted)
[17] = tested on: Mycobacterium tuberculosis; assay: Antimycobacterial activity against Mycobacterium tuberculosis H37Rv ATCC 27294 assessed as bacterial growth inhibition incubated for 5 days by Alamar blue reagent based assay; assay type: functional; conditions: ATCC 27294, 120 h, time 5 day
B16 = assay: Cytotoxicity against mouse B16 cells assessed as reduction in cell viability incubated for 72 hrs by MTT assay; assay type: functional, cell-based; conditions: B16, 72 h
HCT-8 = assay: Cytotoxicity against human HCT-8 cells assessed as reduction in cell viability incubated for 72 hrs by MTT assay; assay type: functional, cell-based; conditions: HCT-8, 72 h
Enterococcus faecalis = assay: Antibacterial activity against Enterococcus faecalis clinical isolates assessed as bacterial growth inhibition by broth macrodilution method; assay type: functional
MDA-MB-435 = assay: Cytotoxicity against human MDA-MB-435 cells assessed as reduction in cell viability incubated for 72 hrs by MTT assay; assay type: functional, cell-based; conditions: MDA-MB-435, 72 h
HepG2 [18] = assay: Cytotoxicity against human HepG2 cells assessed as reduction in cell viability incubated for 72 hrs by MTT assay; assay type: functional, cell-based; conditions: HepG2, 72 h
[19] = Selectivity index, ratio of IC50 for human L02 cells to IC50 for human HepG2 cells; assay type: toxicity; conditions: L02 cells versus HepG2 cells, read-out: Ratio IC50
Sporothrix [20] = assay: Antifungal activity against Sporothrix brasiliensis assessed as fungal growth inhibition incubated for 48 hrs by CLSI-based broth microdilution assay; assay type: functional
Sporothrix schenckii [21] = assay: Antifungal activity against Sporothrix schenckii assessed as fungal growth inhibition incubated for 48 hrs by CLSI-based broth microdilution assay; assay type: functional
Sporothrix [22] = assay: Antifungal activity against Sporothrix brasiliensis assessed as fungal growth inhibition incubated for 48 hrs in presence of itraconazole by CLSI-based broth microdilution assay; assay type: functional
Sporothrix schenckii [23] = assay: Antifungal activity against Sporothrix schenckii assessed as fungal growth inhibition incubated for 48 hrs in presence of itraconazole by CLSI-based broth microdilution assay; assay type: functional
HCT-116 [24] = assay: Cytotoxicity against human HCT-116 cells assessed as reduction in cell viability incubated for 72 hrs by alamar blue assay; assay type: functional, cell-based; conditions: HCT-116, 72 h
HSC-3 = assay: Cytotoxicity against human HSC-3 cells assessed as reduction in cell viability incubated for 72 hrs by alamar blue assay; assay type: functional, cell-based; conditions: HSC-3, 72 h
SCC-25 = assay: Cytotoxicity against human SCC-25 cells assessed as reduction in cell viability incubated for 72 hrs by alamar blue assay; assay type: functional, cell-based; conditions: SCC-25, 72 h
HepG2 [25] = assay: Cytotoxicity against human HepG2 cells assessed as reduction in cell viability incubated for 72 hrs by alamar blue assay; assay type: functional, cell-based; conditions: HepG2, 72 h
[26] = Cytotoxicity against human ACP02 cells assessed as reduction in cell viability incubated for 72 hrs by alamar blue assay; assay type: functional, cell-based; conditions: ACP02, 72 h
SCC-15 = assay: Cytotoxicity against human SCC-15 cells assessed as reduction in cell viability incubated for 72 hrs by alamar blue assay; assay type: functional, cell-based; conditions: SCC-15, 72 h
[27] = Cytotoxicity against human ACP03 cells assessed as reduction in cell viability incubated for 72 hrs by alamar blue assay; assay type: functional, cell-based; conditions: ACP03, 72 h
SCC-4 = assay: Cytotoxicity against human SCC-4 cells assessed as reduction in cell viability incubated for 72 hrs by alamar blue assay; assay type: functional, cell-based; conditions: SCC-4, 72 h
K562 = assay: Cytotoxicity against human K562 cells assessed as reduction in cell viability incubated for 72 hrs by alamar blue assay; assay type: functional, cell-based; conditions: K562, 72 h
SCC-9 = assay: Cytotoxicity against human SCC-9 cells assessed as reduction in cell viability incubated for 72 hrs by alamar blue assay; assay type: functional, cell-based; conditions: SCC-9, 72 h
HT-29 = assay: Cytotoxicity against human HT-29 cells assessed as reduction in cell viability incubated for 72 hrs by alamar blue assay; assay type: functional, cell-based; conditions: HT-29, 72 h
HL-60 [28] = assay: Cytotoxicity against human HL-60 cells assessed as reduction in cell viability incubated for 72 hrs by alamar blue assay; assay type: functional, cell-based; conditions: HL-60, 72 h
[29] = Cytotoxicity against human AGP01 cells assessed as reduction in cell viability incubated for 72 hrs by alamar blue assay; assay type: functional, cell-based; conditions: AGP01, 72 h

CC1(C)OC2=C(C(=O)C(=O)c3ccccc32)C1O (configuration not stated)
MBC (Staphylococcus aureus [1]): > 512 µg/mL
MIC (Staphylococcus aureus [1]): 4 µg/mL (≈ 16.4 µM)
MBC [2]: > 512 µg/mL
MIC [2]: 4 µg/mL (≈ 16.4 µM)
MBC [3]: > 512 µg/mL
MIC [3]: 4 µg/mL (≈ 16.4 µM)
MBC (Staphylococcus aureus [4]): > 512 µg/mL
MIC (Staphylococcus aureus [4]): 4 µg/mL (≈ 16.4 µM)
MTC [5]: 2 µg/mL

CC1(C)OC2=C(CC1[Se]c1ccc(F)cc1)C(=O)C(=O)c1ccccc12 (configuration not stated)
IC50 (SNB-19): 950 nM
IC50 (B16-F10): 950 nM
IC50 (HCT-116 [6]): 950 nM
IC50 (Trypanosoma cruzi [7]): 38300 nM
IC50 (PC-3): 950 nM
IC50 (MCF7): 950 nM

CC1(C)CCC2=C(O1)c1ccccc1/C(=N/O)C2=O
IC50 (HL-60 [8]): 3840 nM
IC50 (NCI-H1975): 2620 nM
IC50 (SF-295): 3470 nM
IC50 (HCT-116 [6]): 2620 nM

COc1cc(OC)cc(C2C3=C(N=C4N=NNN42)c2ccccc2C(=O)C3=O)c1 (configuration not stated)
IC50 (HepG2 [9]): 1180 nM
IC50 (HCT-116 [10]): 220 nM

CC1(C)CCC2=C(O1)c1ccccc1C(=O)C2=O [LAPACHONE]
Vdss [11]: 490 L/m2
CL [12]: 114 L/hr/m2
selectivity ratio [13]: 827
IC50 (Trypanosoma cruzi [14]): 392000 nM
bioavailability [15]: 15.5%
half-life [16]: 2.45 h

Cc1ccc(C2CCC3=C(O2)c2ccccc2C(=O)C3=O)cc1 (configuration not stated)
MIC [17]: 1.25 µg/mL (≈ 4.11 µM)

CC1(C)OC2=C(C(=O)C(=O)c3ccccc32)C1n1cc(-c2ccccc2)nn1 (configuration not stated)
IC50 (HL-60 [8]): 1210 nM
IC50 (B16): < 1210 nM
IC50 (HCT-8): < 1210 nM
MIC (Enterococcus faecalis): 8 µg/mL (≈ 21.5 µM)
IC50 (SF-295): < 1210 nM
IC50 (PC-3): < 1210 nM
IC50 (MDA-MB-435): < 1210 nM

O=C1C(=O)c2ccccc2C2=C1C1(C(=O)Nc3ccc(F)cc31)N1NN=NC1=N2 (configuration not stated)
IC50 (HepG2 [18]): 2860 nM
selectivity ratio [19]: 20.6

CC1(c2ccccc2)CC2=C(O1)c1ccccc1C(=O)C2=O (configuration not stated)
MIC (Sporothrix [20]): 2 µM (≈ 0.581 µg/mL)
MIC (Sporothrix schenckii [21]): 2 µM (≈ 0.581 µg/mL)
MIC (Sporothrix [22]): 0.03 µM
MIC (Sporothrix schenckii [23]): 0.06 µM

CC1(C)OC2=C(CC1I)C(=O)C(=O)c1ccccc12 (configuration not stated)
IC50 (HCT-116 [24]): 20 nM
IC50 (HSC-3): 20 nM
IC50 (SCC-25): 20 nM
IC50 (HepG2 [25]): 20 nM
IC50 [26]: 20 nM
IC50 (SCC-15): 20 nM
IC50 [27]: 20 nM
IC50 (SCC-4): 20 nM
IC50 (K562): 20 nM
IC50 (SCC-9): 20 nM
selectivity ratio [13]: 1690
IC50 (HT-29): 20 nM
IC50 (HL-60 [28]): 20 nM
IC50 [29]: 20 nM

CCC(C)n1ncn(-c2ccc(N3CCN(c4ccc(OCC5COC(Cn6cncn6)(c6ccc(Cl)cc6Cl)O5)cc4)CC3)cc2)c1=O (configuration not stated) [ITRACONAZOLE]
MIC (Sporothrix [20]): 0.125 µM (≈ 0.0882 µg/mL)
MIC (Sporothrix schenckii [21]): 0.125 µM (≈ 0.0882 µg/mL)
